For this assay, the target named is human Edg-2 receptor (Homo sapiens, UniProt Q92633). The assay is described as follows: Determination of Edg-2 receptor inhibition by FLIPR measurements (LPA-mediated calcium liberation). In kind it is cell-based. To be noted: CHO cells overexpressing human Edg-2 receptor, LPA 100 nM, fluo-4 calcium fluorescence; read-out: Inhibitory concentrations IC50 for inhibition of the Edg-2 receptor. The procedure, abridged:
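CHO cells stably overexpressing human Edg-2, loaded with fluo-4 AM, were pre-incubated ~5 min with compound (≤0.3% DMSO), then stimulated with 100 nM LPA 18:1 in HBSS/HEPES/probenecid, pH 7.5. Peak calcium fluorescence over ~3 min, baseline-corrected, versus DMSO gave % inhibition; IC50 from triplicates.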

human Edg-2 receptor, sequence (Q92633 whole entry): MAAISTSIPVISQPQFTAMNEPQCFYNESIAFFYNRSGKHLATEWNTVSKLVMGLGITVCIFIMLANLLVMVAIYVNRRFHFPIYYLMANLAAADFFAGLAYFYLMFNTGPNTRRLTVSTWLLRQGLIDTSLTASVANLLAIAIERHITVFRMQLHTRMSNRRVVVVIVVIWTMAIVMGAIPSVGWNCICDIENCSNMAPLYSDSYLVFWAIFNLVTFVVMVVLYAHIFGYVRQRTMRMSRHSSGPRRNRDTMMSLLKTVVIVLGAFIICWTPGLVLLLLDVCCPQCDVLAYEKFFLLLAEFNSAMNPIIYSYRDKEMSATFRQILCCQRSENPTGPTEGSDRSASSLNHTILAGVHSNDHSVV

For the molecule `COc1ncc(C(=O)NC2(C(=O)O)CCCCCCC2)cc1OCCc1cccc(C)c1` [Example 78, 1-{[6-Methoxy-5-(2-m-tolyl-ethoxy)-pyridine-3-carbonyl]-amino}-cyclooctanecarboxylic acid], the IC50 fell in the range of 100 to 1000 nM.

For the molecule `COc1ccc(C(=O)NC2(C(=O)O)CCC(=O)CC2)cc1OCCc1cccc(C)c1` [Example 55, 1-[4-Methoxy-3-(2-m-tolyl-ethoxy)-benzoylamino]-4-oxo-cyclohexanecarboxylic acid], the IC50 lay within 100 to 1000 nM.

`CC[C@H]1CC[C@](NC(=O)c2cc(OCCc3cccc(C)c3)c3c(c2)OCO3)(C(=O)O)CC1` [Example 134, cis-4-Ethyl-1-{[7-(2-m-tolyl-ethoxy)-benzo[1,3]dioxole-5-carbonyl]-amino}-cyclohexanecarboxylic acid]: the IC50 was < 100 nM.

`COc1ncc(C(=O)N[C@]2(C(=O)O)CC[C@@H](C)CC2)cc1-c1cccc(OC(F)(F)F)c1` [Example 308]: the IC50 was < 100 nM.

As to `COc1ncc(C(=O)NC2(C(=O)O)CCCCCC2)cc1-c1cccc(Cl)c1` [Example 94, 1-{[5-(3-chloro-phenyl)-6-methoxy-pyridyl-3-carbonyl]-amino}-cycloheptanecarboxylic acid], the IC50 fell in the range of 100 to 1000 nM.

Turning to `CC[C@H]1CC[C@](NC(=O)c2cc(F)c(OCCO)c(-c3cc(F)cc(F)c3)c2)(C(=O)O)CC1` [Example 385], the IC50 is < 100 nM.

On to `Cc1cccc(CCOc2cc(C(=O)NC3(C(=O)O)CCCCCC3)ccc2OCCO)c1` [Example 124, 1-[4-(2-Hydroxy-ethoxy)-3-(2-m-tolyl-ethoxy)-benzoylamino]-cycloheptane-carboxylic acid], for which the IC50 was 100 to 1000 nM.

Take `COc1ccc(C(=O)NC2(C(=O)O)CCCCCC2)cc1OCCc1cc(C)ccc1C` [Example 18]: the IC50 is 100 to 1000 nM.

For `COc1ccc(-c2cc(C(=O)N[C@]3(C(=O)O)CC[C@H](C)CC3)cnc2OC)cc1Cl` [Example 319], the IC50 was < 100 nM.

`COc1c(F)cc(C(=O)NC2(C(=O)O)CCCCCC2)cc1OCCc1cccc(C)c1` [Example 70, 1-[3-Fluoro-4-methoxy-5-(2-m-tolyl-ethoxy)-benzoylamino]-cycloheptanecarboxylic acid]: the IC50 is < 100 nM.

On to `C[C@H]1CC[C@@](NC(=O)c2ccc(OCCO)c(OCCc3ccccc3)c2)(C(=O)O)CC1` [Example 420, trans-1-[4-(2-Hydroxy-ethoxy)-3-phenethyloxy-benzoylamino]-4-methyl-cyclohexanecarboxylic acid], for which the IC50 lay within 100 to 1000 nM.

Regarding `COc1ccc(C(=O)NC2(C(=O)O)CCCC(=O)CC2)cc1OCCc1cccc(C)c1` (stereo not drawn) [Example 52, 1-[4-Methoxy-3-(2-m-tolyl-ethoxy)-benzoylamino]-4-oxo-cycloheptanecarboxylic acid], the IC50 lay in the range of 1000 to 30000 nM.

Take `CC[C@H]1CC[C@](NC(=O)c2cnc(OC)c(OCCc3cccc(OC(F)(F)F)c3)c2)(C(=O)O)CC1` [Example 399, cis-4-Ethyl-1-({6-methoxy-5-[2-(3-trifluoromethoxy-phenyl)-ethoxy]-pyridine-3-carbonyl}-amino)-cyclohexanecarboxylic acid]: the IC50 is < 100 nM.

Turning to `COCCOc1ccc(C(=O)NC2(C(=O)O)CCCCCC2)cc1OCCc1cccc(Cl)c1` [Example 115, 1-[3-[2-(3-Chloro-phenyl)-ethoxy]-4-(2-methoxy-ethoxy)-benzoylamino]-cycloheptanecarboxylic acid], the IC50 fell in the range of 1000 to 30000 nM.

For `COc1ncc(C(=O)N[C@]2(C(=O)O)CC[C@H](C)CC2)cc1-c1cccc(OC(F)(F)F)c1` [Example 307], the IC50 is < 100 nM.

Turning to `COc1ccc(C(=O)NC2(C(=O)O)CCC3(CC3)CC2)cc1OCCc1cccc(C)c1` [Example 57, 6-[4-Methoxy-3-(2-m-tolyl-ethoxy)-benzoylamino]-spiro[2.5]octane-6-carboxylic acid], the IC50 is < 100 nM.

Take `COc1ccc(C(=O)NC2(C(=O)O)CCC3(CC2)OCCO3)cc1OCCc1cccc(C)c1` [Example 54, 8-[4-Methoxy-3-(2-m-tolyl-ethoxy)-benzoylamino]-1,4-dioxa-spiro[4.5]decane-8-carboxylic acid]: the IC50 is < 100 nM.

Turning to `CC[C@H]1CC[C@@](NC(=O)c2ccc(OCCO)c(OCCc3cccc(Cl)c3)c2)(C(=O)O)CC1` [Example 418, trans-1-[3-[2-(3-Chloro-phenyl)-ethoxy]-4-(2-hydroxy-ethoxy)-benzoylamino]-4-ethyl-cyclohexanecarboxylic acid], the IC50 was < 100 nM.

As for `COc1ccc(C(=O)NC2(C(=O)O)CCCC2C)cc1OCCc1cccc(C)c1` (stereo not drawn) [Example 49], the IC50 lay in the range of 1000 to 30000 nM.

Regarding `CC[C@H]1CC[C@@](NC(=O)c2ccc(OC)c(-c3ccc(OC)c(Cl)c3)c2)(C(=O)O)CC1` [Example 352], the IC50 was < 100 nM.

On to `CCC1CC1(NC(=O)c1ccc(OC)c(OCCc2cccc(C)c2)c1)C(=O)O` (stereo not drawn) [Example 41], for which the IC50 is < 100 nM.

`COc1ccc(C(=O)NC2(C(=O)O)CC3CCC(C3)C2)cc1OCCc1cccc(C)c1` (stereo not drawn) [Example 47]: the IC50 is < 100 nM.

In the case of `C=C1CCC(NC(=O)c2ccc(OC)c(OCCc3cccc(C)c3)c2)(C(=O)O)CC1` [Example 56, 1-[4-Methoxy-3-(2-m-tolyl-ethoxy)-benzoylamino]-4-methylene-cyclohexanecarboxylic acid], the IC50 is < 100 nM.

In the case of `COc1ccc(C(=O)NC2(C(=O)O)CCCCCC2)cc1OCCc1cccc(Cl)c1` [Example 10], the IC50 is < 100 nM.

As for `COc1ccc(C(=O)N[C@]2(C(=O)O)CC[C@H](C(F)(F)F)CC2)cc1-c1cccc(C2COC2)c1` [Example 459, 1-[(6-Methoxy-3′-oxetan-3-yl-biphenyl-3-carbonyl)-amino]-4-trifluoromethyl-cyclohexanecarboxylic acid], the IC50 was < 100 nM.

`COc1ccc(C(=O)NC2(C(=O)O)CCCCC2C)cc1OCCc1cccc(C)c1` (stereo not drawn) [Example 32]: the IC50 fell in the range of 1000 to 30000 nM.

With `COc1ncc(C(=O)NC2(C(=O)O)CCCCCC2)cc1-c1cccc(NS(=O)(=O)N(C)C)c1` [Example 93], the IC50 lay within 1000 to 30000 nM.

In the case of `COc1ccc(C(=O)NC2(C(=O)O)CCCCCC2)cc1OCCc1cccc(Cl)c1F` [Example 21], the IC50 lay within 100 to 1000 nM.

In the case of `COc1ccc(-c2cc(C(=O)N[C@]3(C(=O)O)CC[C@@H](C)CC3)cnc2OC)cc1Cl` [Example 320], the IC50 was < 100 nM.

Turning to `COc1ccc(C(=O)NC2(C(=O)O)CCC(C(C)C)CC2)cc1OCCc1cccc(C)c1` (stereo not drawn) [Example 29], the IC50 is < 100 nM.

With `COc1ncc(C(=O)N[C@]2(C(=O)O)CC[C@@H](C(C)(C)C)CC2)cc1OCCc1cccc(C)c1` [Example 89, trans-4-tert-Butyl-1-{[6-methoxy-5-(2-m-tolyl-ethoxy)-pyridine-3-carbonyl]-amino}-cyclohexanecarboxylic acid], the IC50 fell in the range of 1000 to 30000 nM.

For `CC[C@H]1CC[C@](NC(=O)c2cnc(OC)c(-c3ccc(OC)c(F)c3)c2)(C(=O)O)CC1` [Example 411], the IC50 is < 100 nM.

With `CC[C@H]1CC[C@](NC(=O)c2ccc(C(F)(F)F)c(-c3ccc(OC)c(Cl)c3)c2)(C(=O)O)CC1` [Example 125, cis-1-[(3′-Chloro-4′-methoxy-6-trifluoromethyl-biphenyl-3-carbonyl)-amino]-4-ethyl-cyclohexanecarboxylic acid], the IC50 was < 100 nM.

The values above are taken from patent US9018383B2, “Acylamino-substituted cyclic carboxylic acid derivatives and their use as pharmaceuticals” (Sanofi, priority 2009, dated 2015).
